Experimental data as given in ChEMBL document CHEMBL1275431, “Telavancin penetration into human epithelial lining fluid determined by population pharmacokinetic modeling and Monte Carlo simulation” (Antimicrob Agents Chemother, 2008).

Columns and labels:
[1] = AUC (0 to infinity) in human epithelial lining fluid at 750 mg administered as single dose; format: ADME, tissue-based; set-up: dose 750 mg, time infinity
[2] = Plasma protein binding in human plasma at 750 mg administered as single dose; format: ADME, organism-based; conditions: read-out: PPB (converted)
[3] = Penetration ratio, ratio of AUC in human epithelial lining fluid to fAUC in human plasma at 750 mg administered as single dose; format: ADME; conditions: in vivo

AUC(0-inf) [1]: 74800 ng·h/mL
fraction unbound [2]: 0.1
Ratio [3]: 1.01
Structure (SMILES): CCCCCCCCCCNCCN[C@@]1(C)C[C@H](O[C@H]2[C@H](Oc3c4cc5cc3Oc3ccc(cc3Cl)[C@@H](O)[C@@H](NC(=O)[C@@H](CC(C)C)NC)C(=O)N[C@@H](CC(N)=O)C(=O)N[C@H]5C(=O)N[C@H]3C(=O)N[C@H](C(=O)N[C@H](C(=O)O)c5cc(O)c(CNCP(=O)(O)O)c(O)c5-c5cc3ccc5O)[C@H](O)c3ccc(c(Cl)c3)O4)O[C@H](CO)[C@@H](O)[C@@H]2O)O[C@@H](C)[C@H]1O [TELAVANCIN]
